In patent US20260198495A1, “BINARY INSECTICIDE COMPOSITION AND USE THEREOF” (SHENYANG SINOCHEM AGROCHEMICALS R & D CO., LTD., priority 2022, published 2026):

What was measured:
Assay type in all cases: in vivo
[1] = system: 2nd-instar nymphs of Frankliniella occidentalis Pergande; test: Joint toxicity of I-72 + carbosulfan, leaf spraying, Example 22, Table 22; conditions: in Phaseolus vulgaris, 48 h
Method: (§1) Test subject: 2nd-instar nymphs of Frankliniella occidentalis Pergande, a sensitive strain reared indoors.
(§2) Preparation of the pesticide solution: according to different test requirements, the test samples in Table 1 were accurately weighed respectively with an electronic analytical balance. The technical pesticides were dissolved in acetone, and then diluted with 0.1% Tween 80 water into a series of pesticide solutions with a certain concentration gradient according to the experimental design dosage.
(§3) Test conditions: temperature: 25-27° C., humidity: RH 60%, and illumination: L:D=14:10
Experimental method: the spraying method was adopted. The kidney bean leaves cultivated in the greenhouse were selected, and the petioles were wrapped with moist degreased cotton and sealing film. They were evenly sprayed with the pesticide solution in the order from low dosage to high dosage according to the experimental design, placed in a 6-cm-diameter Petri dish with filter paper. After natural air-drying in the shade, the test insects were introduced, with 20 insects for each treatment and 3 replicates. In addition, a blank control was set up. […] The corrected mortality rate was calculated using the Abbott's formula, and the DPS data processing software was used for statistical analysis to calculate the toxicities (LC50 values) of the single test pesticides and the mixtures under the test ratios. […]

[2] = system: Bemisia tabaci (Gennadius) nymphs; test: Joint toxicity of I-72 + organophosphorus insecticides, cotton leaf-disk spraying, Example 18, Table 18; conditions: 96 h
Method: Test target: Bemisia tabaci (Gennadius) nymphs.
as §2, with “samples” for “samples in Table 1”
(§4) Experimental method: first, cotton leaves with neat and consistent Bemisia tabaci (Gennadius) nymphs were selected and made into leaf disks, with about 20 insects on each leaf disk. Then, they were evenly sprayed with the pesticide solution in the order from low dosage to high dosage according to the experimental design, with 1.5 mL for each leaf and 3 replicates for each treatment. In addition, a blank control was set up.
(§5) The treated test materials were placed in an observation room, and the temperature, humidity and illumination of the observation room could be adjusted as needed. The number of dead and live insects was investigated 96 hours later. The corrected mortality rate was calculated using the Abbott's formula, and statistical analysis was performed with the DPS data processing software to obtain the toxicity regression equation, LC50 value and 95% confidence limit of each single test pesticide and each mixture of different ratios. Then, the co-toxicity coefficient of each ratio was calculated using the Sun Y-P method to evaluate the mixing effect (the same as in Example 1).

[3] = system: Aphis gossypii Glover nymphs; test: Joint toxicity of I-72 + organophosphorus insecticides, cotton leaf spraying, Example 17, Table 17; conditions: 48 h
Method: Test target: Aphis gossypii Glover nymphs, a sensitive strain reared indoors.
as §2, with “samples” for “samples in Table 1”
as §4, with “uniform” for “neat”, “Aphis gossypii” for “Bemisia tabaci (Gennadius) nymphs”, “selected,” for “selected and made into leaf disks,”, “leaf.” for “leaf disk.”
as §5, with “48” for “96”

[4] = system: 3rd-instar larvae of Hyphantria cunea; test: Joint toxicity of I-72 + organophosphorus insecticides, poplar leaf dipping, Example 20, Table 20; conditions: foliar, 72 h
Method: Test target: 3rd-instar larvae of Hyphantria cunea, a sensitive strain reared indoors.
(§11) Preparation of the pesticide solution: according to different test requirements, the test samples were accurately weighed respectively with an electronic analytical balance. The technical pesticides were dissolved in acetone, and then diluted with 0.1% Tween 80 water into a series of pesticide solutions with a certain concentration gradient according to the experimental design dosage.
Experimental method: first, fresh and tender poplar leaves were selected, cut into small sections of 5 cm, and dipped in the prepared pesticide solution for 10 s in the order from low dosage to high dosage according to the experimental design. After natural air-drying in the shade, they were placed in a 9-cm-diameter Petri dish with filter paper, and uniform and healthy test insects were introduced, with 10 insects for each treatment and 3 replicates for each treatment. In addition, a blank control was set up.
The treated test materials were placed in an observation room, and the temperature, humidity and illumination of the observation room could be adjusted as needed. The number of dead and live insects was investigated 72 hours later.

[5] = system: 3rd-instar larvae of Ostrinia furnacalis Guenee; test: Joint toxicity of I-72 + organophosphorus insecticides, corn stalk dipping, Example 21, Table 21; conditions: 48 h
Method: Test target: 3rd-instar larvae of Ostrinia furnacalis Guenee, a sensitive strain reared indoors.
as §2, with “samples” for “samples in Table 1”
(§6) Experimental method: first, fresh tender corn stalks cultivated in the greenhouse were selected, cut into small sections of 3 cm, and dipped in the prepared pesticide solution for 10 s in the order from low dosage to high dosage according to the experimental design. After natural air-drying in the shade, they were placed in a 9-cm-diameter Petri dish with filter paper, and uniform and healthy test insects were introduced, with 10 insects for each treatment and 3 replicates for each treatment. In addition, a blank control was set up.
as §5, with “48” for “96”

[6] = system: Frankliniella occidentalis Pergande; test: Joint toxicity of I-72 + organophosphorus insecticides, leaf dipping, Example 14, Table 14; conditions: in Phaseolus vulgaris, foliar, 48 h
Method: Test target: Frankliniella occidentalis Pergande, a sensitive strain reared indoors.
as §11
Experimental method: first, kidney bean leaves were selected and dipped in the prepared pesticide solution for 10 s in the order from low dosage to high dosage according to the experimental design. After natural air-drying in the shade, they were placed in a 9-cm-diameter Petri dish with filter paper, and uniform and healthy test insects were introduced, with about 20 insects for each treatment and 3 replicates for each treatment. In addition, a blank control was set up.
The treated test materials were placed in an observation room, and the temperature, humidity and illumination of the observation room could be adjusted as needed. The number of dead and live insects was investigated 48 hours later.

[7] = system: adult Phyllotreta spp.; test: Joint toxicity of I-72 + organophosphorus insecticides, cabbage seedling spraying, Example 19, Table 19; conditions: 72 h
Method: Test target: adult Phyllotreta spp., a sensitive strain reared indoors.
as §2, with “samples” for “samples in Table 1”
Experimental method: first, fresh cabbage seedlings cultivated in the greenhouse were selected and evenly sprayed with the pesticide solution in the order from low dosage to high dosage according to the experimental design. After natural air-drying in the shade, they were covered with a glass cover, and uniform and healthy test insects were introduced, with 10 insects for each treatment and 3 replicates for each treatment. In addition, a blank control was set up.
as §5, with “72” for “96”

[8] = system: 3rd-instar larvae of Chilo suppressalis (Walker); test: Joint toxicity of I-72 + organophosphorus insecticides, rice seedling dipping, Example 15, Table 15; conditions: 48 h
Method: Test target: 3rd-instar larvae of Chilo suppressalis (Walker), a sensitive strain reared indoors.
as §2, with “samples” for “samples in Table 1”
Experimental method: first, tender and fresh rice seedlings were selected and dipped in the prepared pesticide solution for 10 s in the order from low dosage to high dosage according to the experimental design. After natural air-drying in the shade, they were cut into small sections of 5 cm, placed in a 9-cm-diameter Petri dish with filter paper, and uniform and healthy test insects were introduced, with 10 insects for each treatment and 3 replicates for each treatment. In addition, a blank control was set up.
as §5, with “48” for “96”

[9] = system: 3rd-instar larvae of Plutella xylostella; test: Joint toxicity of I-72 + chlorpyrifos, leaf-disk dipping, Example 16, Table 16; conditions: in Brassica oleracea, 72 h
Method: Test target: 3rd-instar larvae of Plutella xylostella.
as §2, with “samples” for “samples in Table 1”
as §6, with “cabbage leaves” for “tender corn stalks”, “selected. The cabbage leaves were made” for “selected, cut”, “circular leaf disks with a diameter” for “small sections”, “cm using a puncher” for “cm,”
The treated test materials were placed in an observation room, and the temperature, humidity and illumination of the observation room could be adjusted as needed. […] Then, the co-toxicity coefficient of each ratio was calculated using the Sun Y-P method to evaluate the mixing effect (the same as in Example 1).

[10] = system: adult Bemisia tabaci (Gennadius); test: Joint toxicity of I-72 + abamectin, seedling spraying, Example 13, Table 13; conditions: adults, kidney bean seedling spraying, 72 h; A = compound I-72, B = abamectin
From the text: (§7) Test subject: adult Bemisia tabaci (Gennadius), a sensitive strain reared indoors.
(§8) Experimental method: the spraying method was adopted. The kidney bean seedlings cultivated in the greenhouse were selected and evenly sprayed with the pesticide solution in the order from low dosage to high dosage according to the experimental design. After natural air-drying in the shade, a self-made glass cover was put on, and the test insects were introduced, with 20-30 insects for each treatment and 3 replicates. In addition, a blank control was set up. The number of dead and live insects was investigated 72 hours later. The corrected mortality rate was calculated using the Abbott's formula, and the DPS data processing software was used for statistical analysis to calculate the toxicities (LC50 values) of the single test pesticides and the mixtures under the test ratios.
(§9) The test conditions, the preparation of the pesticide solution and the evaluation method were the same as those in Example 1.
The test subject, the test method, the test conditions, the preparation of the pesticide solution and the evaluation method were the same as those in Example 12.

[11] = system: 2nd-instar larvae of Chilo suppressalis (Walker); test: Joint toxicity of I-72 + abamectin, rice stalk spraying, Example 7, Table 7; conditions: resistant 2nd-instar larvae, 72 h, A = compound I-72, B = abamectin
Method: Test target: 2nd-instar larvae of Chilo suppressalis (Walker). The insect source was collected from Nanchang, Jiangxi Province, and it is the 11th generation continuously cultured indoors, with a relatively high resistance level to amide pesticides such as chlorantraniliprole.
as §3
(§10) Preparation method: the test pesticides were accurately weighed respectively with an electronic analytical balance. After the two technical materials were respectively added into an appropriate amount of solvent and completely dissolved, the stock solution of the required concentration was prepared with water containing 0.1% Tween 80. The stock solutions of the two active ingredients were mixed in a certain ratio to prepare a mixed solution, which was then diluted respectively into a series of pesticide solutions with a certain concentration gradient according to the experimental design dosage.
Experimental method: the spraying method was adopted. […] The corrected mortality rate was calculated using the Abbott's formula, and the DPS data processing software was used for statistical analysis to calculate the toxicities (LC50 values) of the single test pesticides and the mixtures under the test ratios. […]

[12] = system: 3rd-instar larvae of Pyrausta nubilalis Hubern; test: Synergism assay (Bliss) of I-72 + abamectin, spinosad, spinetoram, emamectin benzoate, Example 6, Table 6; conditions: 72 h
Method: Test subject: 3rd-instar larvae of Pyrausta nubilalis Hubern, a sensitive strain reared indoors.
Test conditions: temperature: 24-26° C., humidity: RH 60%, and illumination: L:D=14:10
as §10
Experimental method: the artificial diet-pesticide film method was adopted. A standard clean 24-well culture plate was selected. 1 ml of artificial diet was added to each well. After the diet cooled and solidified, a quantitative amount of a pesticide solution was added to the culture plate using a continuous sampler, and then it was air-dried naturally in the shade. The standard test insects were introduced, with 1 insect in each well, a total of 48 insects. The treated test insects were placed in an observation room under certain conditions. The reaction of the test insects was regularly observed, and the number of dead and live insects was investigated 72 h later.
The evaluation method adopted was the Bliss method. This method is applicable to the qualitative screening of insecticidal compositions. According to the concept of independent joint action he proposed, Bliss believes that the theoretical mortality rate P when insecticides are used in combination can be calculated by the following formula: […]
Pm is the mortality rate (%) of the target when the first active ingredient is at a concentration of m; and Pn is the mortality rate (%) of the target when the second active ingredient is at a concentration of n.
If the actual mortality rate of the target after the two active ingredients are mixed at a certain concentration is greater than theoretical mortality rate P, it is determined that the two active ingredients have a synergistic effect when used in combination at the set concentration, and otherwise, they have an antagonistic effect.

[13] = system: adult Bemisia tabaci (Gennadius); test: Joint toxicity of I-72 + emamectin benzoate, seedling spraying, Example 12, Table 12; conditions: adults, kidney bean seedling spraying, 72 h; A = compound I-72, B = emamectin benzoate
From the text: as §7, §8, §9

[14] = system: 3rd-instar larvae of Spodoptera exigua Hübner; test: Joint toxicity of I-72 + emamectin benzoate, leaf-disk dipping, Example 9, Table 9; conditions: cabbage leaf-disk dipping, 72 h, A = compound I-72, B = emamectin benzoate
From the text: Test subject: 3rd-instar larvae of Spodoptera exigua Hübner, a sensitive strain reared indoors.
Experimental method: the dipping method was adopted. The cabbage leaves cultivated in the greenhouse were taken, the surface wax layer was removed, and leaf disks with a diameter of 3 cm were made with a puncher. The leaf disks were dipped in the prepared pesticide solution for 10 s, and then put into a 9-cm-diameter Petri dish lined with filter paper. After natural air-drying in the shade, the standard test insects were introduced, with 10 insects placed in each dish and 3 replicates performed. The treated test insects were placed in an observation room under certain conditions. The reaction of the test insects was regularly observed, and the number of dead and live insects was investigated 72 h later.
as §9

[15] = system: 2nd-instar larvae of Chilo suppressalis (Walker); test: whole plant or invertebrate; conditions: resistant 2nd-instar larvae, rice stalk spraying, 72 h; A = compound I-72, B = spinetoram
Method: In addition, a blank control was set up. The number of dead and live insects was investigated 72 hours later.

[16] = system: 2nd-instar nymphs of Frankliniella occidentalis Pergande; test: Joint toxicity of I-72 + spinetoram, leaf spraying, Example 11, Table 11; conditions: kidney bean leaf spraying, 48 h, A = compound I-72, B = spinetoram
From the text: as §1
Experimental method: the spraying method was adopted. The kidney bean leaves cultivated in the greenhouse were selected, and the petioles were wrapped with moist degreased cotton and sealing film. They were evenly sprayed with the pesticide solution in the order from low dosage to high dosage according to the experimental design, placed in a 6-cm-diameter Petri dish with filter paper. After natural air-drying in the shade, the test insects were introduced, with 20 insects for each treatment and 3 replicates. In addition, a blank control was set up. The number of dead and live insects was investigated 48 hours later. The corrected mortality rate was calculated using the Abbott's formula, and the DPS data processing software was used for statistical analysis to calculate the toxicities (LC50 values) of the single test pesticides and the mixtures under the test ratios.
as §9

CCCCN(CCCC)SN(C)C(=O)Oc1cccc2c1OC(C)(C)C2 [carbosulfan, reference compound]
LC50 [1]: 43.2 µg/mL

CCOP(=S)(OCC)Oc1nc(Cl)c(Cl)cc1Cl [chlorpyrifos]
LC50 [2]: 12.1 µg/mL | LC50 [3]: 4.16 µg/mL | LC50 [4]: 5.24 µg/mL | LC50 [5]: 5.18 µg/mL | LC50 [6]: 4.6 µg/mL | LC50 [7]: 40.4 µg/mL | LC50 [8]: 1.96 µg/mL | LC50 [9]: 13.7 µg/mL

abamectin
LC50 [10]: 2.2263 µg/mL | LC50 [11]: 8.0355 µg/mL | Mortality rate (%) ([12]; single agent 0.1 mg/L): 10.42% | Mortality rate (%) ([12]; single agent 1 mg/L): 58.33% | Mortality rate (%) ([12]; single agent 2 mg/L): 75.00% | Mortality rate (%) ([12]; single agent 5 mg/L): 85.42%

emamectin benzoate
LC50 [13]: 1.1995 µg/mL | Mortality rate (%) ([12]; single agent 0.05 mg/L): 41.67% | Mortality rate (%) ([12]; single agent 0.1 mg/L): 50.00% | Mortality rate (%) ([12]; single agent 0.2 mg/L): 79.17% | Mortality rate (%) ([12]; single agent 0.5 mg/L): 87.50% | LC50 [14]: 0.0878 µg/mL

spinetoram
Mortality rate (%) ([12]; single agent 0.1 mg/L): 8.33% | Mortality rate (%) ([12]; single agent 1 mg/L): 56.25% | Mortality rate (%) ([12]; single agent 2 mg/L): 70.83% | Mortality rate (%) ([12]; single agent 5 mg/L): 81.25% | LC50 [15]: 9.4220 µg/mL | LC50 [16]: 0.7822 µg/mL
